The values below come from patent US10611740B2, “Aryl dihydro-2H-benzo[b][1,4]oxazine sulfonamide and related compounds for use as agonists of RORγ and the treatment of disease” (Lycera Corporation, priority 2015, dated 2020).

The structures appear in SMILES notation.

Broadly, the EC50 is the concentration at which the effect is half-maximal. The low end stands for higher potency in that assay, the high end for lower potency in that assay.

This experiment has as its target T1, RORγ-LBD (Homo sapiens, UniProt P51449).
T1 construct: made in house; host or cells: SF9 cells (baculovirus)
T1 sequence (P51449 269-508 limits assumed): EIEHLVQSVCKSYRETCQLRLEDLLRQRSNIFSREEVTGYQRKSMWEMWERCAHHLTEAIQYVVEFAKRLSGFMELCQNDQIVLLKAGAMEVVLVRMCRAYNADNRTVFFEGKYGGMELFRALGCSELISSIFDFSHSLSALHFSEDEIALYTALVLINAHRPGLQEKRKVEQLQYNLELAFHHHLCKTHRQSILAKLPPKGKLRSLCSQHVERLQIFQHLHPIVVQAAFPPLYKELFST
As to the kind of experiment: RORγ-Ligand Binding Domain (LBD) TR-FRET Assay.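 For TR-FRET Assay Max Response: 665/615 nm ratio relative to signal without ursolic acid or compound set at 100.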 It counts as biochemical. As to the method:
Assay procedures and results are described below.
HIS-tagged RORγ-LBD protein was expressed in SF9 cells using a baculovirus expression system. The lysate was diluted in assay buffer (50 mM Tris pH 7.0, 50 mM KCl, 1 mM EDTA, 0.1 mM DTT, 0.01% BSA) to obtain RORγ-LBD final concentration of ˜3 nM in a 384-well assay plate (need to titrate for each batch of protein).
A stock of biotinylated-LXXLL peptide from coactivator SRC1 (Biotin-[…]) was prepared in assay buffer and added to each well (200 nM final concentration). […] RORγ antagonist ursolic acid was also included at a final concentration of 2 μM. Compounds were diluted in DMSO and further diluted in assay buffer with a final DMSO concentration at 1%.
A general note: TR-FRET usually uses a lanthanide donor and a delayed reading to cut background.

In the case of `Cn1cc(C(=O)NC[C@H]2CN(S(=O)(=O)c3cccc(C(F)(F)F)c3)c3cc(-c4cc(F)cc(OC(F)F)c4)ccc3O2)c(C(F)(F)F)n1` [Compound 30CZ, (S)-N-((6-(3-(difluoromethoxy)-5-fluorophenyl)-4-((3-(trifluoro-methyl)phenyl)sulfonyl)-3,4-dihydro-2H-benzo[b][1,4]-oxazin-2-yl)methyl)-1-methyl-3-(trifluoromethyl)-1H-pyrazole-4-carboxamide], the EC50 was less than 500 nM and the “TR-FRET Assay Max Response” value was “*** (The symbol “***” indicates a value in the range of greater than 150 to 200)”.

In the case of `O=C(NC[C@H]1CN(S(=O)(=O)c2cccc(C(F)(F)F)c2)c2cc(-c3cc(F)cc(OC(F)F)c3)ccc2O1)c1ccn[nH]1` [Compound 30DB, (S)-N-((6-(3-(difluoromethoxy)-5-fluorophenyl)-4-((3-(trifluoromethyl)phenyl)sulfonyl)-3,4-dihydro-2H-benzo[b][1,4]oxazin-2-yl)methyl)-1H-pyrazole-5-carboxamide], the EC50 is less than 500 nM and the “TR-FRET Assay Max Response” value is on record as “*** (The symbol “***” indicates a value in the range of greater than 150 to 200)”.

Consider `CC(C)(C[C@@H]1CN(S(=O)(=O)c2cccc(C(F)(F)F)c2)c2cc(-c3cc(F)ccc3F)ccc2O1)NC(=O)C(C)(C)O` [Compound 30DD, (R)-N-(1-(6-(2,5-difluoro-phenyl)-4-((3-(trifluoromethyl)-phenyl)sulfonyl)-3,4-dihydro-2H-benzo[b][1,4]oxazin-2-yl)-2-methylpropan-2-yl)-2-hydroxy-2-methylpropanamide], for which the EC50 is less than 500 nM and the “TR-FRET Assay Max Response” value is “*** (The symbol “***” indicates a value in the range of greater than 150 to 200)”.

Regarding `CC(C)(C[C@@H]1CN(S(=O)(=O)c2cccc(C(F)(F)F)c2)c2cc(-c3cc(F)ccc3F)ccc2O1)NS(C)(=O)=O` [Compound 30DF, (R)-N-(1-(6-(2,5-difluoro-phenyl)-4-((3-(trifluoromethyl)-phenyl)sulfonyl)-3,4-dihydro-2H-benzo[b][1,4]oxazin-2-yl)-2-methylpropan-2-yl)methane-sulfonamide], the 50% effective concentration (EC50) is less than 500 nM and the “TR-FRET Assay Max Response” value was “*** (The symbol “***” indicates a value in the range of greater than 150 to 200)”.

As for `CC(C)(C[C@H]1CN(S(=O)(=O)c2cccc(C(F)(F)F)c2)c2cc(-c3cccc(OC(F)F)n3)ccc2O1)C(=O)O` [Compound 32AM, (S)-3-(6-(6-(difluoromethoxy)-pyridin-2-yl)-4-((3-(trifluoro-methyl)phenyl)sulfonyl)-3,4-dihydro-2H-benzo[b][1,4]oxazin-2-yl)-2,2-dimethylpropanoic acid], the concentration giving a half-maximal response (EC50) was less than 500 nM and the “TR-FRET Assay Max Response” value is on record as “* (The symbol “*” indicates a value in the range of 25 to 90)”.

For the compound `O=C(O)C1(C[C@@H]2CN(S(=O)(=O)c3cccc(C(F)(F)F)c3)c3cc(-c4cc(F)cc(F)c4)ccc3O2)CCC1` [Compound 32AP, (R)-1-((6-(3,5-difluorophenyl)-4-((3-(trifluoromethyl)phenyl)-sulfonyl)-3,4-dihydro-2H-benzo[b][1,4]oxazin-2-yl)methyl)cyclobutane-1-carboxylic acid], the EC50 was less than 500 nM and the “TR-FRET Assay Max Response” value is “** (The symbol “**” indicates a value in the range of greater than 90 to 150)”.

For the compound `O=C(O)C1(C[C@@H]2CN(S(=O)(=O)c3cccc(C(F)(F)F)c3)c3cc(-c4cc(F)ccc4F)ccc3O2)CCC1` [Compound 32AQ, (R)-1-((6-(2,5-difluorophenyl)-4-((3-(trifluoromethyl)phenyl)-sulfonyl)-3,4-dihydro-2H-benzo[b][1,4]oxazin-2-yl)methyl)cyclobutane-1-carboxylic acid], the EC50 was 500 to 5000 nM and the “TR-FRET Assay Max Response” value was “** (The symbol “**” indicates a value in the range of greater than 90 to 150)”.

Consider `CC(C)(C[C@H]1CN(S(=O)(=O)c2cccc(C(F)(F)F)c2)c2cc(-c3c(F)cccc3C(F)(F)F)ccc2O1)C(=O)O` [Compound 32AY, (S)-3-(6-(2-fluoro-6-(trifluoro-methyl)phenyl)-4-((3-(trifluoro-methyl)phenyl)sulfonyl)-3,4-dihydro-2H-benzo[b][1,4]oxazin-2-yl)-2,2-dimethylpropanoic acid], for which the EC50 is less than 500 nM and the “TR-FRET Assay Max Response” value was “** (The symbol “**” indicates a value in the range of greater than 90 to 150)”.

Consider `CC(C)(C[C@H]1CN(S(=O)(=O)c2cccc(C(F)(F)F)c2)c2cc(-c3cc(F)cc(F)c3Cl)ccc2O1)C(=O)O` [Compound 32U, (S)-3-(6-(2-chloro-3,5-difluoro-phenyl)-4-((3-(trifluoromethyl)-phenyl)sulfonyl)-3,4-dihydro-2H-benzo[b][1,4]oxazin-2-yl)-2,2-dimethylpropanoic acid], for which the 50% effective concentration (EC50) is less than 500 nM and the “TR-FRET Assay Max Response” value is “*** (The symbol “***” indicates a value in the range of greater than 150 to 200)”.

For the compound `C[C@H](C[C@H]1CN(S(=O)(=O)c2cccc(C(F)(F)F)c2)c2cc(-c3cc(F)cc(F)c3Cl)cc(F)c2O1)C(=O)O` [Compound 46H, (R)-3-((S)-6-(2-chloro-3,5-difluorophenyl)-8-fluoro-4-((3-(trifluoromethyl)phenyl)sulfonyl)-3,4-dihydro-2H-benzo[b][1,4]-oxazin-2-yl)-2-methylpropanoic acid], the EC50 is less than 500 nM and the “TR-FRET Assay Max Response” value is on record as “*** (The symbol “***” indicates a value in the range of greater than 150 to 200)”.

Take `C[C@@H](C[C@H]1CN(S(=O)(=O)c2cccc(C(F)(F)F)c2)c2cc(-c3cc(F)cc(F)c3Cl)cc(F)c2O1)C(=O)O` [Compound 46I, (S)-3-((S)-6-(2-chloro-3,5-difluorophenyl)-8-fluoro-4-((3-(trifluoromethyl)phenyl)sulfonyl)-3,4-dihydro-2H-benzo[b][1,4]-oxazin-2-yl)-2-methylpropanoic acid]: the EC50 was less than 500 nM and the “TR-FRET Assay Max Response” value is “*** (The symbol “***” indicates a value in the range of greater than 150 to 200)”.

As for `C[C@H](C[C@H]1CN(S(=O)(=O)c2cccc(C(F)(F)F)c2)c2cc(-c3cc(F)cc(F)c3)ccc2O1)C(=O)O` [Compound 46J, (R)-3-((S)-6-(3,5-difluorophenyl)-4-((3-(trifluoromethyl)phenyl)-sulfonyl)-3,4-dihydro-2H-benzo[b][1,4]oxazin-2-yl)-2-methylpropanoic acid], the EC50 was less than 500 nM and the “TR-FRET Assay Max Response” value was “*** (The symbol “***” indicates a value in the range of greater than 150 to 200)”.

Regarding `C[C@H](C[C@H]1CN(S(=O)(=O)c2cccc(C(F)(F)F)c2)c2cc(-c3cccc(C(F)(F)F)c3)ccc2O1)C(=O)O` [Compound 46K, (R)-2-methyl-3-((S)-6-(3-(trifluoromethyl)phenyl)-4-((3-(trifluoromethyl)phenyl)sulfonyl)-3,4-dihydro-2H-benzo[b][1,4]-oxazin-2-yl)propanoic acid], the concentration for a half-maximal effect (EC50) was less than 500 nM and the “TR-FRET Assay Max Response” value is listed as “*** (The symbol “***” indicates a value in the range of greater than 150 to 200)”.

The compound `C[C@@H](C[C@H]1CN(S(=O)(=O)c2cccc(C(F)(F)F)c2)c2cc(-c3cccc(C(F)(F)F)c3)ccc2O1)C(=O)O` [Compound 46L, (S)-2-methyl-3-((S)-6-(3-(trifluoromethyl)phenyl)-4-((3-(trifluoromethyl)phenyl)sulfonyl)-3,4-dihydro-2H-benzo[b][1,4]-oxazin-2-yl)propanoic acid] showed an EC50 of less than 500 nM.

For `C[C@H](C[C@H]1CN(S(=O)(=O)c2cccc(C(F)(F)F)c2)c2cc(-c3cc(F)cc(F)c3Cl)ccc2O1)C(=O)O` [Compound 46M, (R)-3-((S)-6-(2-chloro-3,5-difluorophenyl)-4-((3-(trifluoromethyl)phenyl)sulfonyl)-3,4-dihydro-2H-benzo[b][1,4]oxazin-2-yl)-2-methylpropanoic acid], the EC50 was less than 500 nM and the “TR-FRET Assay Max Response” value is listed as “*** (The symbol “***” indicates a value in the range of greater than 150 to 200)”.

For `C[C@H](C[C@H]1CN(S(=O)(=O)c2cccc(C(F)(F)F)c2)c2cc(-c3cc(F)cc(OC(F)F)c3)ccc2O1)C(=O)O` [Compound 46O, (R)-3-((S)-6-(3-(difluoro-methoxy)-5-fluorophenyl)-4-((3-(trifluoromethyl)phenyl)sulfonyl)-3,4-dihydro-2H-benzo[b][1,4]-oxazin-2-yl)-2-methylpropanoic acid], the EC50 was less than 500 nM and the “TR-FRET Assay Max Response” value is “*** (The symbol “***” indicates a value in the range of greater than 150 to 200)”.

On to `C[C@@H](C[C@H]1CN(S(=O)(=O)c2cccc(C(F)(F)F)c2)c2cc(-c3cc(F)cc(OC(F)F)c3)ccc2O1)C(=O)O` [Compound 46P, (S)-3-((S)-6-(3-(difluoro-methoxy)-5-fluorophenyl)-4-((3-(trifluoromethyl)phenyl)sulfonyl)-3,4-dihydro-2H-benzo[b][1,4]-oxazin-2-yl)-2-methylpropanoic acid], for which the EC50 is less than 500 nM and the “TR-FRET Assay Max Response” value is “*** (The symbol “***” indicates a value in the range of greater than 150 to 200)”.
